Data as given in PubChem BioAssay (NCI).
“And” between values parts separate entries of the source, which are not always exact repeats. Equal entries are not always repeated.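 Growth conditions: 96-well plates. Treatment: test compound, 48 hours, 5 concentrations. Analysis: linear interpolation between bracketing concentrations; unreached endpoints set to highest concentration. Abbreviation: GI50, concentration required for 50% inhibition of growth. Definition used: TGI = concentration required for complete inhibition of growth.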

Columns and labels:
Test in all cases: growth of human tumour cells (NCI), 48 h
786-0 renal = test system: 786-0 renal
SK-MEL-5 melanoma = test system: SK-MEL-5 melanoma
OVCAR-4 ovarian = test system: OVCAR-4 ovarian
SK-MEL-28 melanoma = test system: SK-MEL-28 melanoma

SMILES | TGI (786-0 renal) | TGI (SK-MEL-5 melanoma) | TGI (OVCAR-4 ovarian) | TGI (SK-MEL-28 melanoma) | GI50 (SK-MEL-28 melanoma)
Cc1nnc2n1N=C(c1cc(F)c(Cl)cc1Cl)/C(=C/c1ccc3c(c1)OCO3)S2 | > 100 µM | > 100 µM | > 100 µM | > 100 µM | –
N#CC1(C#N)C(c2ccccc2)C=CC(c2ccc([N+](=O)[O-])cc2)C1(C#N)C#N (stereo unspecified) | 7.71 µM | 22.9 µM | 30.5 µM | 35.5 µM | –
CN(C)Cc1cc(/C=C/C(=O)c2ccc(Cl)c(Cl)c2)cc(CN(C)C)c1O | 21.3 µM | 28.1 µM | – | 26.9 µM | –
CC12C(=O)OC(=O)C1(C)C1C=CC2O1 (stereo unspecified) | > 100 µM | > 100 µM | – | > 100 µM | –
C=C(CN)CO[Si](C)(C)C(C)(C)C | > 100 µM | > 100 µM | – | > 100 µM | –
COc1ccc(N=CN(C)C)c(C)c1 | > 100 µM | 12.5 µM | 73.6 µM | 85.6 µM | –
c1cc(C[S+]2CCCC2)sc1C[S+]1CCCC1 | > 100 µM | > 100 µM | > 100 µM | – | –
COC(=O)/C=C1/OC(c2ccc(C)cc2)=C(Cl)C1=O | 27 µM | 27.9 µM | 27.5 µM | 30.9 µM | –
COc1cccc(Nc2nc(N)nc(N)c2N=O)c1 | 70.2 µM | 39.1 µM | 78.5 µM | 69.8 µM | –
CC(C)NC(=O)OCc1c(COC(=O)NC(C)C)c(-c2ccc[n+](COC(=O)C(C)(C)C)c2)n2c1CCC2 | > 100 µM | > 100 µM | > 100 µM | > 100 µM | –
COC(=O)C1(C(=O)OC)CC2=C(S(=O)(=O)c3ccccc3)C[C@H](C#N)[C@H]2C1 | > 100 µM | > 100 µM | > 100 µM | > 100 µM | –
O=c1c2cc(S(=O)(=O)Nc3c(Cl)cccc3Cl)ccc2ncn1NS(=O)(=O)c1ccc2ccccc2c1 | > 62.5 µM | – | > 62.5 µM | > 62.5 µM | –
Cc1ccc(/C=N/NS(=O)(=O)c2ccc(/C=C3\NC(=O)NC3=O)cc2)cc1 | > 100 µM | > 100 µM | > 100 µM | > 100 µM | –
CN(C)CCCN1c2ccccc2CCc2cc([N+](=O)[O-])ccc21 | 66 µM and 28.9 µM | 31.2 µM and 25.7 µM | 69.5 µM and 40.5 µM | 80.9 µM and 28.2 µM | 28.2 µM and 13.9 µM
NC(=O)OCc1c(-c2ccccc2)nn(-c2ccccc2)c1COC(N)=O | > 100 µM | > 100 µM | > 100 µM | > 100 µM | –
O=C(O)c1ccc(NNC(=O)c2cccc3c(=O)c4ccccc4[nH]c23)cc1 | > 100 µM | > 100 µM | > 100 µM | > 100 µM | –
CCOC(=O)c1cc2cc(C)cc(C(=O)c3ccc([N+](=O)[O-])cc3)c2[nH]1 | > 100 µM | > 100 µM | > 100 µM | > 100 µM | –
O=C(CC(=O)N1N=C(N(c2ccccc2)c2ccccc2)CC1c1ccccc1)Nc1ccccc1 (stereo unspecified) | > 100 µM | > 100 µM | > 100 µM | > 100 µM | –

SMILES | TGI (786-0 renal) | TGI (SK-MEL-5 melanoma) | TGI (OVCAR-4 ovarian) | TGI (SK-MEL-28 melanoma) | GI50 (SK-MEL-28 melanoma)
O=C1OC(CS(=O)(=O)c2ccccc2)CC1O (stereo unspecified) | > 100 µM | > 100 µM | > 100 µM | > 100 µM | –
O=C(OCc1ccccc1)N1CCCc2c(n(S(=O)(=O)c3ccccc3)c3ccccc23)C1 | > 100 µM | > 100 µM | > 100 µM | > 100 µM | –
CC1=CC(=O)/C(=C/n2c(=S)[nH]c3ccc([N+](=O)[O-])cc32)C(=O)O1 | > 100 µM | > 100 µM | > 100 µM | > 100 µM | –
CCOC(=O)c1cc(C#N)[nH]c1-c1ccsc1 | > 100 µM | > 100 µM | > 100 µM | > 100 µM | –
O=c1/c(=C/c2ccc([N+](=O)[O-])o2)sc2n1[C@@H](c1ccc3c(c1)OCO3)C=C(c1cc(F)c(Cl)cc1Cl)N=2 | 42.1 µM | 24 µM | 32.6 µM | > 100 µM | –
CC1c2cc(c3c(c2O)CN([C@@H](C)C2CCCCC2)CO3)C(C)c2cc(c3c(c2O)CN([C@@H](C)C2CCCCC2)CO3)C(C)c2cc(c3c(c2O)CN([C@@H](C)C2CCCCC2)CO3)C(C)c2cc1c1c(c2O)CN([C@@H](C)C2CCCCC2)CO1 (stereo partly specified) | 2.4 µM | 3.46 µM | 3.03 µM | 3.55 µM | –
O=S(=O)(O)C(Cc1nc2ccccc2[nH]1)S(=O)(=O)OCCC1S(=O)(=O)OCCOS1(=O)=O (stereo unspecified) | > 100 µM | > 100 µM | > 100 µM | > 100 µM | –
CC(C)N1[C@@H]2CCCC[C@H]2N(C(C)C)P1(=O)C(=O)/C=C/c1ccccc1 | 3.36 µM | 3.44 µM | 3.39 µM | 8.87 µM | –
O=C(COc1ccc(Cl)cc1Cl)N/N=C/C=C/c1ccc([N+](=O)[O-])o1 | 65.9 µM | 5.26 µM | 61.8 µM | > 100 µM | –
O=C(c1cccs1)N(Cc1cccnc1)C(=S)N(Cc1cccnc1)C(=O)c1cccs1 | 34.3 µM | > 100 µM | > 100 µM | > 100 µM | –
COc1ccc(-n2sc3ncc([N+](=O)[O-])cc3c2=O)cc1 | > 100 µM | > 100 µM | > 100 µM | > 100 µM | –
CC1(O)Oc2ccc3ccccc3c2C=C1C(N)=O (stereo unspecified) | > 100 µM | > 100 µM | > 100 µM | > 100 µM | –
Cn1c(=O)c2c(nc3n(C)c(=O)c4ccccc4n23)n(C)c1=O | > 100 µM | > 100 µM | > 100 µM | > 100 µM | –
COC(=O)c1ccccc1C1CN=NC12Cc1cc(C)cc(C)c1C2=O (stereo unspecified) | > 100 µM | > 100 µM | > 100 µM | > 100 µM | –
O=C(c1ccccc1)C1C[C@H]2CO[C@H](c3ccccc3)N2C1=O (stereo partly specified) | > 100 µM | > 100 µM | > 100 µM | > 100 µM | –
O=c1[nH]c2cc([N+](=O)[O-])ccc2nc1/C=C(\O)c1ccc(Cl)cc1 | 14.4 µM | 51.2 µM | 41.1 µM | 22.9 µM | –
Cc1ccc(S(=O)(=O)Nn2c(O)c(C#N)c(-c3ccc(N(C)C)cc3)c(C#N)c2=O)cc1 | > 50 µM | > 50 µM | > 50 µM | > 50 µM | –
